Laboratory results from patent publication US6803383B2, “Inhibition of angiogenesis and tumor growth” (The Scripps Research Institute, priority 2000, dated 2004).

Key:
[1] = molecular target: T1, MMP2 and tissue inhibitor of metalloproteinase 2 (TIMP2) (Homo sapiens, UniProt P08253); assay: Binding between MMP2 and TIMP2
T1 sequence (P08253 110-660): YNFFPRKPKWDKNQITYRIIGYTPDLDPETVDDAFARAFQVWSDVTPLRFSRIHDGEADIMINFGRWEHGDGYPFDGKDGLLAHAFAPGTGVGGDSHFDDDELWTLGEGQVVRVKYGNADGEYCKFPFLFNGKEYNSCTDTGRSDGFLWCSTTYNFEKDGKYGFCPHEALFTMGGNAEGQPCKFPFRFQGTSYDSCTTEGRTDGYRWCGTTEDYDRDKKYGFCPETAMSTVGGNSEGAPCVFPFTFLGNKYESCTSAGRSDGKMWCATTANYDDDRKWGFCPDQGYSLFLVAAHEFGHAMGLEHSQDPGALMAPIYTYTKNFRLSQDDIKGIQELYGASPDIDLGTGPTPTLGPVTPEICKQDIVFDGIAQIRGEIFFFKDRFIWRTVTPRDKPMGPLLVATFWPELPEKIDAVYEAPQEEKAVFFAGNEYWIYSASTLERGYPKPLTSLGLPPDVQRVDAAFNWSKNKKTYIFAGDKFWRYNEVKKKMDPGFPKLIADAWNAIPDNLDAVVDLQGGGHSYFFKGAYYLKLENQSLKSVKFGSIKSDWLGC

integrin α5β1 = integrin α5β1 (Homo sapiens, UniProt P05556+P08648); assay: Direct binding of [14C]-Compound 1 to immobilized control integrin, solid phase
integrin α5β1, sequence (P08648 42-894 limits assumed): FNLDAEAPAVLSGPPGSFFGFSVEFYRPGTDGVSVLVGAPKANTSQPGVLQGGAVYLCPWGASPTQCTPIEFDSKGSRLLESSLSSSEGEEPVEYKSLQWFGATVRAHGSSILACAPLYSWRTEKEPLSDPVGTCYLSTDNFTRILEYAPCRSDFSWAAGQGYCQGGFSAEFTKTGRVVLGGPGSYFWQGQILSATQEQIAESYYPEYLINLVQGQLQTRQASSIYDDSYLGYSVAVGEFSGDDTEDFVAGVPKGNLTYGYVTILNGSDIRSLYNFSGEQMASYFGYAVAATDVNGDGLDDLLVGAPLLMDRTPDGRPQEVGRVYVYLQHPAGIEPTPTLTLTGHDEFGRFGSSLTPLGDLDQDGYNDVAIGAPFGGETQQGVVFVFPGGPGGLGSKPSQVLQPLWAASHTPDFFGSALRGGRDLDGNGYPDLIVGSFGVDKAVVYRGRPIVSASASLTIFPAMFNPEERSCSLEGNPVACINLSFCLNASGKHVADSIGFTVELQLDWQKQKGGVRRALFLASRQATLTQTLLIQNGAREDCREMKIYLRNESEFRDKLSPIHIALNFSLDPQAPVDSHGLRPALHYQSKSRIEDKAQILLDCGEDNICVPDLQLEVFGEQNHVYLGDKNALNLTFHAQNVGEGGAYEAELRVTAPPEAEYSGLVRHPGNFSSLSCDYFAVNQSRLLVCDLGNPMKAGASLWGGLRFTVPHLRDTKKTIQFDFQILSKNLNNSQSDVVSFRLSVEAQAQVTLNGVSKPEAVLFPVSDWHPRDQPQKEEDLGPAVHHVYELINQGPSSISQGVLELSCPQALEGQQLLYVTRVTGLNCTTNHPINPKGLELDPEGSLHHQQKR
integrin α5β1, sequence (P08648 895-1049 limits assumed): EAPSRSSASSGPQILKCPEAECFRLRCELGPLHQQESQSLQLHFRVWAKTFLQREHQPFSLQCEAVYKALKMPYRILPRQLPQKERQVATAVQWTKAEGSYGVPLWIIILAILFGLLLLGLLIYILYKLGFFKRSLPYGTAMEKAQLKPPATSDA
integrin α5β1, sequence (P05556 21-798): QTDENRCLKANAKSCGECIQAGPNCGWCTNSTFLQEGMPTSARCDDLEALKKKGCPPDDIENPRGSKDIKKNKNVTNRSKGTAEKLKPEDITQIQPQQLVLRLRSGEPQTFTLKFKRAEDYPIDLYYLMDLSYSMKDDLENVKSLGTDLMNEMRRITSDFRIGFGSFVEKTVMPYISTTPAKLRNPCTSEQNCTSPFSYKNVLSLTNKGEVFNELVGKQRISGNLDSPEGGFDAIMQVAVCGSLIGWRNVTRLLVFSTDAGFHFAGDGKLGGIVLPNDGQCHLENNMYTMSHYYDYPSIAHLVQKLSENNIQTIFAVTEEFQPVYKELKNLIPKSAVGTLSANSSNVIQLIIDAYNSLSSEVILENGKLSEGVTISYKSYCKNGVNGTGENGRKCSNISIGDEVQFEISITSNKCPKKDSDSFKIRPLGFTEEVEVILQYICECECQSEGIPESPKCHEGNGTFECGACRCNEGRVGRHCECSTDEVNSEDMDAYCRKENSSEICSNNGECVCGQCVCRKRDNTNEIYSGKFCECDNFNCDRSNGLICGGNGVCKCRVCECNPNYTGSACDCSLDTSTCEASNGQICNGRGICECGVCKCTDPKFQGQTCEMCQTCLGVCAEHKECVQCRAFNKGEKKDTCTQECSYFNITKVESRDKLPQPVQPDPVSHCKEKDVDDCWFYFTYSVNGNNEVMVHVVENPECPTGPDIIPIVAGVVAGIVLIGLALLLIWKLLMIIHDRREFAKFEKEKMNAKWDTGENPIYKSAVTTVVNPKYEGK
Method: (§1) Dried wells were separated and immersed in BetaMax liquid scintillation cocktail (ICN Biochemicals, Costa Mesa, Calif.) for quantitation. From this binding curve a subsaturating concentration (3 μM) of [^14C]-Compound 1 was examined in the presence and absence of a 25-fold molar excess ([…]) of unlabeled Compound 1 or Compound 12, or 100 μM cyclic RGD or RAD peptide. Control was bVN, used and detected as described above.

integrin αvβ3 = molecular target: T2, integrin αvβ3 (Homo sapiens, UniProt P05106+P06756); assay: Direct binding of [14C]-Compound 1 to immobilized integrin, solid phase
T2 construct: purchased Merck KGaA or Chemicon International
T2 sequence (P06756 31-889 limits assumed): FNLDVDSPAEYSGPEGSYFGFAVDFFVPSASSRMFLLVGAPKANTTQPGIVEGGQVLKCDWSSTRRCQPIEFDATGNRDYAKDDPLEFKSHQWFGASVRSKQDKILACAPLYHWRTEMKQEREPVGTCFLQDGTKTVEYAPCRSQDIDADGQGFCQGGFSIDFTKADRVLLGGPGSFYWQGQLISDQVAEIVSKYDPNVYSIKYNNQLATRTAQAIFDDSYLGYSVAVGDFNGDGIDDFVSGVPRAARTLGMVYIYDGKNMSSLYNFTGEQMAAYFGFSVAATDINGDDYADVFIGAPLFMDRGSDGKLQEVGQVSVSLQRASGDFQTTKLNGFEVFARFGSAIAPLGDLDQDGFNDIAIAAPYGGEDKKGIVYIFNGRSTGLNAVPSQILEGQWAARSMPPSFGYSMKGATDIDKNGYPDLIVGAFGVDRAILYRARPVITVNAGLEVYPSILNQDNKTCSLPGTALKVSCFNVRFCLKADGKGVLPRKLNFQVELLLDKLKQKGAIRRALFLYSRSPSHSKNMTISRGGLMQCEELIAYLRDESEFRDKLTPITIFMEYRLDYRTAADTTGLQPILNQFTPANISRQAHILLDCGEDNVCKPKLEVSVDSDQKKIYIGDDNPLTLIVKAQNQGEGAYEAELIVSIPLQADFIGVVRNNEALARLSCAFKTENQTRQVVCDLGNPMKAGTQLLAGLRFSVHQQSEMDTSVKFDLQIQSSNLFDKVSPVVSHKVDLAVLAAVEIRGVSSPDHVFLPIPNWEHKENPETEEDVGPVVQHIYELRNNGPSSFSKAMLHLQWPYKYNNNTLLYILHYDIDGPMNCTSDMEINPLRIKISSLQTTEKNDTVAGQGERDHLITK
T2 sequence (P06756 891-1048 limits assumed): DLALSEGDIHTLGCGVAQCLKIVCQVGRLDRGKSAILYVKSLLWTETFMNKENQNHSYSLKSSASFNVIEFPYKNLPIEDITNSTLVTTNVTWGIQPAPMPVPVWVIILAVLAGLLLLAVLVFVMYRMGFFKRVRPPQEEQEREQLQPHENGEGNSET
T2 sequence (P05106 27-788): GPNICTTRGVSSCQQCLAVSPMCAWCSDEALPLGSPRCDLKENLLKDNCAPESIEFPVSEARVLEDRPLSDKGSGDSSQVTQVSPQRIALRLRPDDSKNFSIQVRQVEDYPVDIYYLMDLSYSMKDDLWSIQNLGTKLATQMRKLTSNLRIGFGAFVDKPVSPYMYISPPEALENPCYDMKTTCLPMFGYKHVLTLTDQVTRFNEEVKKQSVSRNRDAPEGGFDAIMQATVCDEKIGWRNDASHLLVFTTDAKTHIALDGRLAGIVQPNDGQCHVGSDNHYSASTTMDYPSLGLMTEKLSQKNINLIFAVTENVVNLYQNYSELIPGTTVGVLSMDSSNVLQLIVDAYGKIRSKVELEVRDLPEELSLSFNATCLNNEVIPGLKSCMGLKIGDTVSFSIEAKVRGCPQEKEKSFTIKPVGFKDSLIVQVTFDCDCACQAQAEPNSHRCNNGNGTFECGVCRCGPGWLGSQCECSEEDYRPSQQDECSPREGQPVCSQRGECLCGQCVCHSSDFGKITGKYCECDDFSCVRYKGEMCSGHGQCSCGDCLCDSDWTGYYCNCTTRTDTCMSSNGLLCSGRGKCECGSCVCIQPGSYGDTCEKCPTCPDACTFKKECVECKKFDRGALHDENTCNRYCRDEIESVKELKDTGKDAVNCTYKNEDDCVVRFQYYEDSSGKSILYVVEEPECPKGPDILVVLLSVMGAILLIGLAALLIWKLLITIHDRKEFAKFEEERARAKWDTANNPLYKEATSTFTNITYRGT
Method: as §1

MMP2 [2] = molecular target: T3, MMP2 (Homo sapiens, UniProt P08253); assay: Direct binding of Compound 1 to MMP2 coated on the microtiter well; conditions: data not shown
T3 construct: purchased Calbiochem (La Jolla, Calif.)
T3 sequence (P08253 110-660): T1 sequence (P08253 110-660)

[3] = tested on: bFGF-induced angiogenesis on chick CAM; assay: Chick chorioallantoic membrane (CAM) angiogenesis assay; assay type: in vivo; conditions: 10 day chick CAM, 3 μg/ml bFGF, 20 μl of 3 μM compound, 3 days; FIGS. 4A, 4B
Method: (§2) Angiogenesis was assessed essentially as described previously (Cell, 85, 683-93 (1996); Cell, 92, 391-400 (1998)). After stimulation with 3 μg/ml of basic fibroblast growth factor (bFGF), 10 day chick embryo CAMs were treated with 20 μl of 3 μM Compound 1 or Compound 12. Three days after induction, the CAMs were quantitated in a blind evaluation. CAMs from each group were pooled, minced, and extracted with 50 mM Tris, […], 0.1% Triton X-100 containing COMPLETE-brand protease inhibitor cocktail without EDTA (Boehringer, Mannheim, Germany) prior to analysis by zymography.

CS-1 cells = assay: Biotinylated MMP2 cell-binding assay, β3-negative cells; assay type: cell-based, hamster; conditions: 12 nM bMMP2, 10 μM compound; FIG. 3B
Method: (§3) Wells had been coated overnight with 50 μl of 0.414 mCi/ml [^3H]-collagen IV (ICN Biochemicals, Costa Mesa, Calif.) and washed extensively until the radioactivity in the recovered wash solution reached background. Alternatively, cells were treated as above in the absence of MMP2, or the MMP2 solutions were added directly to the wells without cells, as controls. Collagen IV degradation was quantitated by measuring the radioactivity released into the 50 μl of culture medium as determined in a liquid scintillation counter. For the assessment of biotinylated MMP2 binding to CS-1 cells, cells were suspended in adhesion buffer and incubated with 12 nM bMMP2 for 45 minutes at 37° C. in the presence or absence of 10 μM Compound 1 or Compound 12. Cells were subsequently washed before lysis and processing for SDS-PAGE and immunoblotting with an anti-biotin mAb.

MMP2 [4] = assay: Zymography of chick CAM lysates; assay type: in vivo; conditions: FIG. 4C
Method: as §2
Zymography. Chick CAM lysates were prepared as described above and equal quantities of protein were separated in the absence of reducing agents or boiling on polyacrylamide gels embedded with 0.2% gelatin. The gels were washed with 2% Triton X-100, followed by extensive washing with water prior to overnight incubation at 37° C. in collagenase buffer (50 mM Tris 7.4, 200 mM NaCl 10 mM CaCl2). Gelatinolytic activity was visualized by staining the gels with 0.5% Coomassie blue.

MMP2 [5] = molecular target: T3, MMP2; assay: [3H]-collagen IV degradation by purified active MMP2 without cells; assay type: biochemical; conditions: 4 nM active MMP2, 10 μM compound, no cells
Method: as §3, with “CS-1 cells or β3CS-1 cells were incubated in adhesion buffer fibroblast basal medium (FBM) supplemented with 0.5% bovine serum albumin (BSA), 0.4 mM MnCl2 and 10 μg/ml aprotinin) containing either 4 nM purified active MMP2 alone, or in combination with 10 μM Compound 1 or Compound 12 for 45 minutes at 37° C. prior to washing and addition to the [^3H]-collagen IV-coated wells. Wells” for “Wells”

[6] = tested on: αvβ3-negative CS-1 melanoma tumors; assay: Tumor growth assay on chick CAM; assay type: in vivo
Method: Primary tumors were grown on CAMs of 9-day embryos by implantation 5×10^6 CS-1 cells and incubation for 7 days. At this point, 50 mg sections of these tumors were subcultured onto fresh 9-day CAMs and allowed to implant for 24 hours before a single intravenous (IV) injection with 100 μl of 100 μM of test compounds in Hank's Balanced Saline Solution (HBSS). Buffer alone was used as control. Tumors were incubated for a total of 10 days, harvested and trimmed free of excess stromal tissue before determining wet weight and processing for histology.
Snap-frozen CS-1 tumor sections were fixed with 4% paraformaldehyde and permeablized with 0.1% Triton X-100. Sections were blocked with 5% bovine serum albumin (BSA) in phosphate buffered saline (PBS) prior to staining with an anti-vWF pAb and visualization with an Alexa 568-conjugated anti-rabbit secondary antibody. Samples were analyzed on a MRC1024 confocal microscope (BioRad, Hercules, Calif.). Blood vessel density was quantitated with a 20×objective on four fields per section and four tumors per condition.

β3CS-1 cells [7] = assay: Biotinylated MMP2 cell-binding assay, β3-positive cells; assay type: cell-based, hamster
Method: CS-1 cells or β3CS-1 cells were incubated in adhesion buffer fibroblast basal medium (FBM) supplemented with 0.5% bovine serum albumin (BSA), 0.4 mM MnCl2 and 10 μg/ml aprotinin) containing either 4 nM purified active MMP2 alone, or in combination with 10 μM Compound 1 or Compound 12 for 45 minutes at 37° C. prior to washing and addition to the [^3H]-collagen IV-coated wells. Wells had been coated overnight with 50 μl of 0.414 mCi/ml [^3H]-collagen IV (ICN Biochemicals, Costa Mesa, Calif.) and washed extensively until the radioactivity in the recovered wash solution reached background. Alternatively, cells were treated as above in the absence of MMP2, or the MMP2 solutions were added directly to the wells without cells, as controls. Collagen IV degradation was quantitated by measuring the radioactivity released into the 50 μl of culture medium as determined in a liquid scintillation counter. […]
Immunoblotting. Equal quantities of protein were separated by SDS-PAGE under reducing conditions and electroblotted to an Immobilon-P membrane (Millipore, Bedford, Md.). The membrane was blocked and immobilized proteins were detected by incubation with an antigen-specific primary antibody, followed by an HRP-conjugated secondary antibody as required. […]

β3CS-1 cells [8] = assay: Cell-mediated [3H]-collagen IV degradation via MMP2; assay type: cell-based, hamster; conditions: 4 nM active MMP2, 10 μM compound, FIG. 3A
Method: as §3

CS-1 melanoma cells = assay: In vitro growth of melanoma cells in co-culture with compound; assay type: cell-based, hamster; conditions: co-culture with the compound; data not shown
[9] = molecular target: T4, MMP2 binding to integrin αvβ3 (Homo sapiens, UniProt P05106+P06756); assay: Solid phase integrin binding assay: biotinylated MMP2 binding to immobilized integrin; conditions: bMMP2 3-5 nM, FIG. 2A
T4 construct: purchased Merck KGaA or Chemicon International (integrin); Chemicon (proMMP2) or Calbiochem (active MMP2)
T4 sequence (P06756 31-889 limits assumed): as the sequence (P06756 31-889 limits assumed) above
T4 sequence (P06756 891-1048 limits assumed): as the sequence (P06756 891-1048 limits assumed) above
T4 sequence (P05106 27-788): as the sequence (P05106 27-788) above
Method: (§4) Purified integrins were adsorbed overnight onto microtiter wells (1-5 μg/ml, […]) prior to blocking with Caseinblocker (Pierce, Rockford, Ill.). Purified biotinylated MMP2 (bMMP2, 3-5 nM) in binding buffer (50 mM Tris, pH 8, 150 mM NaCl, 1 mM MgCl2, 0.5 mM MnCl2) was added to the wells in the presence or absence of Compound 1, Compound 12, cyclic RGD or RAD peptides, or buffer vehicle alone. Control wells received no integrin. Biotinylated vitronectin (bVN, 1 μg/ml) was used as a reference. Bound protein was detected with HRP-anti-biotin mAb and quantitated at 450 nm with 3,3′,5,5′-tetramethylbenzidine solution (TMB; a substrate for the peroxidase) (BioRad, Hercules, Calif.).

[10] = molecular target: T5, vitronectin binding to integrin αvβ3 (Homo sapiens, UniProt P05106+P06756); assay: Solid phase integrin binding assay: biotinylated vitronectin (bVN) binding to immobilized integrin
T5 construct: purchased Merck KGaA or Chemicon International (integrin)
T5 sequence (P06756 31-889 limits assumed): as the sequence (P06756 31-889 limits assumed) above
T5 sequence (P06756 891-1048 limits assumed): as the sequence (P06756 891-1048 limits assumed) above
T5 sequence (P05106 27-788): as the sequence (P05106 27-788) above
Method: as §4, §1

## O=C(CNC(=O)c1cccc(C(=O)NCC(=O)NCCCC[C@H](NC(=O)OCc2ccc(C(F)(F)F)cc2)C(=O)O)c1)NCCCC[C@H](NC(=O)OCc1ccc(C(F)(F)F)cc1)C(=O)O [Compound 1, N,N^1-Bis-[(5-(S)-carboxy-5-[((4-trifluoromethyl)benzyloxycarbonyl)amino]-pentyl)carboxamidomethyl]benzene-1,3-dicarboxamide]
[1]
  Effect on binding between MMP2 and TIMP2: not inhibited
Integrin α5β1; [14C]-labeled Compound 1, FIG. 2B
  Direct binding to control integrin α5β1: minimal interaction
Integrin α5β1; higher concentrations of compound, data not shown
  Direct binding to integrin α5β1 at higher concentrations: negligible binding
Integrin αvβ3; 3 μM [14C]-Compound 1, 25-fold molar excess of unlabeled compound, FIG. 2C
  Inhibition of [14C]-Compound 1 binding to integrin αvβ3 by unlabeled compound: inhibited
Integrin αvβ3; [14C]-labeled Compound 1, titration, FIG. 2B
  Direct binding to integrin αvβ3: bound directly
MMP2 [2]
  Direct binding to MMP2 coated on the well: no binding
[3]
  Effect on development of new blood vessels in bFGF-stimulated CAM: almost completely abolished
CS-1 cells
  Effect on biotinylated MMP2 binding to β3-negative CS-1 cells: not diminished
MMP2 [4]
  Levels of active MMP2 (62 kDa) in CAM tissues, treated versus untreated: equivalent levels of active MMP2
  Overall levels of MMP2 in CAM lysates: unaffected
MMP2 [5]
  Effect on [3H]collagen IV degradation by purified active MMP2 in the absence of cells: still able to degrade
[6]; anti-vWF immunofluorescence of tumor sections
  Overall tumor blood vessel density: gross reduction
[6]; single IV injection, 100 μl of 100 μM
  Cell death within the tumor mass: significant cell death
[6]; single IV injection, 100 μl of 100 μM, 10 days, wet weight
  Tumor weight: significantly retarded
[6]; single IV injection, 100 μl of 100 μM, 10 days, FIG. 5A
  Growth of transplanted CS-1 melanoma tumors on chick CAM: significantly retarded
[6]; single IV injection, 100 μl of 100 μM, FIG. 5A
  Tumor surface vasculature: gross reduction
β3CS-1 cells [7]; 12 nM bMMP2, 10 μM compound, FIG. 3B
  Effect on enhanced biotinylated MMP2 binding to β3CS-1 cells: specifically suppressed
β3CS-1 cells [7]; 10 μM compound, corrected by anti-actin mAb staining, FIG. 3B lane 2
  Biotinylated MMP2 binding to β3CS-1 cells, corrected for lane loading: reduced the binding of MMP2 to the β3CS-1 cells to the level observed in the absence αvβ3
β3CS-1 cells [8]
  Effect on MMP2-enhanced cell-mediated [3H]collagen IV degradation: specifically abolished
CS-1 melanoma cells
  Growth of CS-1 melanoma cells in vitro: not affected
[9]
  Effect on MMP2 binding to integrin αvβ3: completely abrogated

## COC(=O)[C@H](CCCCNC(=O)CNC(=O)c1ccccc1)NC(=O)OCc1ccc(C(F)(F)F)cc1 [Compound 6, (S)-Methyl 6-[2-(benzoylamino)acetamido]-2-[(4-trifluoromethyl)benzyloxycarbonyl)hexanoate]
[9]
  Effect on MMP2 binding to integrin αvβ3: slightly less active than Compound 1

## COC(=O)[C@H](CCCCNC(=O)CNC(=O)COCC(=O)O)NC(=O)OCc1ccc(C(F)(F)F)cc1 [Compound 8]
[9]
  Effect on MMP2 binding to integrin αvβ3: inactive

## O=C(CNC(=O)c1cccc(C(=O)NCC(=O)NCCCC[C@H](NC(=O)c2ccccc2)C(=O)O)c1)NCCCC[C@H](NC(=O)c1ccccc1)C(=O)O [Compound 12, N,N′-Bis-[N-(-5-(S)-((benzoyl)amino)-5-(carboxy)pentyl)carboxamidomethyl]benzene-1,3-dicarboxamide]
[3]
  Effect on development of new blood vessels in bFGF-stimulated CAM: ineffective
CS-1 cells
  Effect on biotinylated MMP2 binding to β3-negative CS-1 cells: not diminished
MMP2 [5]
  Effect on [3H]collagen IV degradation by purified active MMP2 in the absence of cells: still able to degrade
β3CS-1 cells [8]
  Effect on MMP2-enhanced cell-mediated [3H]collagen IV degradation: negligible effect
[9]
  Effect on MMP2 binding to integrin αvβ3: neither the control compound nor the control peptide cRADfV interfered

## cRGDfV [reference compound]
Integrin αvβ3; 3 μM [14C]-Compound 1, 100 μM cyclic peptide, FIG. 2D
  Inhibition of [14C]-Compound 1 binding to integrin αvβ3 by peptide: inability of the cRGDfV peptide to inhibit
[10]; 100 μM cyclic peptide, FIG. 2D
  Inhibition of bVN binding to immobilized integrin αvβ3 by peptide: completely abolished
[10]; bVN 1 μg/ml, FIG. 2A
  Effect on vitronectin binding to integrin αvβ3: inhibited
[9]
  Effect on MMP2 binding to integrin αvβ3: lack of effect
